For test [1], the system named is tubulin. Nature of the test: Inhibition of tubulin polymerization (tubulin assembly, turbidity at 350 nm). The settings on record: tubulin at 10 μM, read-out: Tubulin IC50 ± SD. It is filed as biochemical. Here is the method: The assembly reaction mixtures contained 0.8 M monosodium glutamate (pH 6.6 with HCl in a 2 M stock solution), 10 μM tubulin, 4% (v/v) DMSO, and varying concentrations of drug. Following a 15 min preincubation at 30 °C, samples were chilled on ice, GTP to 0.4 mM was added, and turbidity development was followed at 350 nm in a temperature-controlled recording spectrophotometer for 20 min at 30 °C. The extent of reaction was measured. Full experimental details were previously described.[35]

Test [2] deals with tubulin. In words: Inhibition of [3H]colchicine binding to tubulin. The settings on record: for Colch. binding (% ± SD): inhibition of [3H]colchicine binding, tubulin, [3H]colchicine, inhibitor at 1, 5 and 5 μM. On the procedure: The reaction mixtures contained 1.0 μM tubulin, 5.0 μM [^3H]colchicine, and 5.0 or 1.0 μM inhibitor, as indicated, and were incubated for 10 min at 37 °C. Complete details were described previously.[36]

Test [3] has as its system MCF-7 human breast carcinoma cells. Nature of the test: MCF-7 cell growth inhibition. It is filed as cell-based. The settings on record: read-out: MCF-7 IC50 ± SD.
Test [4] deals with HCT116 colon cancer cells. In words: HCT116 cell viability (MTS assay). The following applies: inhibition of growth of HCT116 colon cancer cells, incubation time 48 h. The test is classed as cell-based. On the procedure: (§1) MCF-7 breast carcinoma cells were obtained from the National Cancer Institute drug screening laboratory. HCT116 cell line was grown in Dulbecco's modified Eagle's medium (DMEM). BX-PC3 cells were grown in RPMI-1640 medium. Both media were supplemented with 10% fetal bovine serum (FBS), 100 U mL^−1 penicillin, […] streptomycin and 1% of L-glutamine. Cell lines were cultured at 37 °C in 5% CO2 and 95% air in a humidified incubator. T-ALL (Jurkat) cells were grown in RPMI-1640 medium. Both media were supplemented with 115 units per mL of penicillin G, 115 μg mL^−1 of streptomycin, and 10% fetal bovine serum (FBS, all purchased from Invitrogen, Milan, Italy). Cancer cells were seeded in tissue treated, flat bottom, 384-well plates (Corning, Corning, NY, USA) in 24 μL of complete medium per well, using a Microlab STAR 96-CORE liquid handling system (Hamilton Bonaduz, Bonaduz, Switzerland).
(§2) Cell viability of HCT116 and BX-PC3 cells was determined using the 3-(4,5-dimethylthiazol-2-yl)-5-(3-carboxymethoxyphenyl)-2-(4-sulfophenyl)-2H-tetrazolium (MTS) colorimetric assay.[38] […] After 48 h of growth, the MTS reagent was added to each well and absorbance at […] was measured by a microplate reader (Victor, PerkinElmer). The results were expressed as % relative to control cells (100%) and IC50 values were calculated using GraphPad Prism statistics software by nonlinear regression analysis.
In general terms: Formazan colour is commonly taken as a measure of viable cells.

The test system of test [5] is BX-PC3 pancreatic cancer cells. Nature of the test: BX-PC3 cell viability (MTS assay). The settings on record: Homo sapiens, BXPC-3; inhibition of growth of BX-PC3 pancreatic cancer cells; incubation time 48 h. It is filed as cell-based. On the procedure: as §1, §2
Test [6] concerns Jurkat T lymphocyte cancer cells. In words: Jurkat (T-ALL) cell viability (resazurin assay). The settings on record: Homo sapiens, 96 h, inhibition of growth of Jurkat T lymphocyte cancer cells, incubation time 96 h. It is filed as cell-based. On the procedure:
as §1, with “Cancer cells were seeded in tissue treated, flat bottom, 384-well plates (Corning, Corning, NY, USA) in 24 μL of complete medium per well, using a Microlab STAR 96-CORE liquid handling system (Hamilton Bonaduz, Bonaduz, Switzerland).” left out
For T-ALL, drug stock solutions were prepared for each compound by dissolving them at 10 mM in DMSO. […] The fluorescence signal was measured at 590 nm using a Spark 10 M spectrophotometer (Tecan Group Ltd., Mannedorf, Switzerland). Only plates with Z′ > 0.5 were further analyzed for the drug screening. Raw data were normalized according to the following equation: cell viability (%) = (x − POS)/(NEG − POS) × 100, where x is the relative fluorescence units (RFU) collected from each single well, NEG is the mean of intraplate negative controls (DMSO, corresponding to 100% cell viability), and POS is the mean of intraplate positive controls (benzethonium chloride 75 μM, equal to 0% cell viability). […]
In general terms: Alamar Blue is a resazurin reagent that responds to reducing activity.

Test [7] concerns BX-PC3 spheroids. In words: 3D culture (spheroids) from BX-PC3 cells. The test is classed as cell-based. The settings on record: 320 nM for 48 h. On the procedure:
(§3) 3D culturing of BX-PC3 and HCT116 cells were performed seeding 500 cells/well into ultra-low attachment 96-well round-bottomed plates and cultured in supplemented RPMI and DMEM, respectively, at 37 °C under […] atmosphere for 7 days, until spheroids were formed. To evaluate the effect of compound 4 on spheroid growth, a range of doses (10–320 nM) was added to the cell suspension after spheroid formation, and the culture was maintained for 48 h. Spheroid diameters wwere measured using the ZEISS ZEN imaging software from the pictures obtained with an inverted optical microscope (Axio Vert A1, Zeiss, Oberkochen, Germany).

Test [8] concerns HCT116 spheroids. Nature of the test: 3D culture (spheroids) from HCT116 cells. The test is classed as cell-based. The following applies: 160 nM for 48 h. On the procedure:
as §3

Where [9] appears, read: Homo sapiens, MCF7, cells grown for 96 h.
Setting [10] is: Homo sapiens, MCF7, 96 h, cells grown for 96 h.

Experimental findings from PMC12306498, “Microwave-assisted synthesis of tubulin assembly inhibitors as anticancer agents by aryl ring reversal and conjunctive approach” (RSC Medicinal Chemistry, 2025) are described below.

Several values for one entry are separate records, joined by “and”; a condition that tells them apart may be missing. Equal values may be shown once. Entries after “also recorded” stand apart in the source; their conditions may differ. Read-outs that look alike come from different tables or passages of the source.

Consider `COc1ccc(-c2cn(-c3ccccn3)cc2C(=O)c2cc(OC)c(OC)c(OC)c2)cc1` [Compound 4, (4-(4-Methoxyphenyl)-1-(pyridin-2-yl)-1H-pyrrol-3-yl)(3,4,5-trimethoxyphenyl)methanone], for which the IC50 was 190 ± 6 nM in test [1]; 9.6 ± 0.8 nM in test [3] (setting [9]); 18 nM in test [4] (Homo sapiens, HCT-116, 48 h); 28 nM in test [4]; 17 nM in test [5]; 41 nM in test [6]. For the same compound, the “Colch. binding (% ± SD)” value in test [2] was 78% and 78 ± 1%. Also, in test [2] (inhibitor at 1 μM, tubulin 1 μM, [3H]colchicine 5 μM), the “Inhibition of [3H]colchicine binding” value was found to be 76%. Also, the “Spheroid diameter and morphology” value in test [7] and in test [8] was “altered the morphology of treated spheroids; also recorded: significant reduction of spheroid diameter” each time.
In the case of `COc1cc(C(=O)c2cn(-c3ncccn3)cc2/C=C/c2ccccc2)cc(OC)c1OC` [Compound 23, (E)-(1-(pyrimidin-2-yl)-4-styryl-1H-pyrrol-3-yl)(3,4,5-trimethoxyphenyl)methanone], the IC50 in test [1] came to 770 ± 30 nM; in test [3] (setting [9]) it was 270 ± 10 nM. In addition, in test [2], the “Colch. binding (% ± SD)” value came to 65 ± 5%.
On the same counts, the results for `COc1cc(C(=O)c2cn(-c3ncccn3)cc2-c2ccc(N3CCCCC3)cc2)cc(OC)c1OC` [Compound 24, (4-(4-(Piperidin-1-yl)phenyl)-1-(pyrimidin-2-yl)-1H-pyrrol-3-yl)(3,4,5-trimethoxyphenyl)methanone] are 630 ± 40 nM, 112 ± 7.7 nM and 35 ± 2%.
As for `COc1cc(C(=O)c2cn(-c3ccccn3)c3ccc(Cl)cc23)cc(OC)c1OC` [Compound 25, (5-Chloro-1-(pyridin-2-yl)-1H-indol-3-yl)(3,4,5-trimethoxyphenyl)methanone], the IC50 is 1500 ± 300 nM in test [1], 42 nM in test [3] (setting [10]) and 41.7 ± 2.6 nM in test [3] (cells grown for 96 h). The “Colch. binding (% ± SD)” value in test [2] came out at 36 ± 4%.
Turning to `COc1cc(C(=O)c2cn(-c3cccnc3)c3ccc(Cl)cc23)cc(OC)c1OC` [Compound 26, (5-Chloro-1-(pyridin-3-yl)-1H-indol-3-yl)(3,4,5-trimethoxyphenyl)methanone], the half-inhibitory concentration (IC50) is 1500 ± 300 nM in test [1] and 306 ± 13.4 nM in test [3] (setting [10]). The “Colch. binding (% ± SD)” value in test [2] stood at 23 ± 4%.
For `COc1cc(C(=O)c2cn(-c3ncccn3)c3ccc(Cl)cc23)cc(OC)c1OC` [Compound 27, (5-Chloro-1-(pyrimidin-2-yl)-1H-indol-3-yl)(3,4,5-trimethoxyphenyl)methanone], the half-maximal inhibitory concentration (IC50) in test [1] stood at 1000 ± 90 nM; in test [3] (setting [10]), 77 ± 10 nM. In addition, in test [2], the “Colch. binding (% ± SD)” value came to 34 ± 5%.
On the same counts, the results for `COc1cc(C(=O)c2cn(-c3ncccn3)c3ccc(F)cc23)cc(OC)c1OC` [Compound 28, (5-Fluoro-1-(pyrimidin-2-yl)-1H-indol-3-yl)(3,4,5-trimethoxyphenyl)methanone] are 590 ± 100 nM, 73 ± 4 nM and 45 ± 0.8%.
The like results for `COc1cc(C(=O)c2cn(-c3ncccn3)c3ccc(C#N)cc23)cc(OC)c1OC` [Compound 29, 1-(Pyrimidin-2-yl)-3-(3,4,5-trimethoxybenzoyl)-1H-indole-5-carbonitrile] were, in that order, 1300 ± 70 nM, 230 ± 7 nM and 42 ± 5%.
As to `COc1ccc2c(c1)c(C(=O)c1cc(OC)c(OC)c(OC)c1)cn2-c1ncccn1` [Compound 30, (5-Methoxy-1-(pyrimidin-2-yl)-1H-indol-3-yl)(3,4,5-trimethoxyphenyl)methanone], the concentration for half-maximal inhibition (IC50) was 380 ± 40 nM in test [1] and 220 ± 60 nM in test [3] (setting [10]). In test [2], the “Colch. binding (% ± SD)” value is 71% and 71 ± 5%.

By IC50 is commonly meant the midpoint of a concentration-inhibition curve.
